Legend:
[1] = tested on: tumor vasculature of 786-O xenografts; test: IHC of tumor vasculature in 786-O xenografts; type: in vivo, mouse
Protocol: (§1) Formalin-fixed paraffin-embedded samples were sectioned at 5 μm thickness and mounted on Superfrost Plus microscope slides (Fisher Scientific). All immunohistochemical (IHC) staining was performed on Bond Rx auto-stainer (Leica Biosystems) using the conventional TSA-amplified detection system. Primary antibodies used were as follows: α-CD31 (Abcam #ab182981), α-smooth muscle actin (SMA; Abcam #ab124964), α-Meca32 (Novus Biologicals #NB100-77668). TSA-conjugated Alexa488 and Alexa647 fluorophores from Invitrogen (#B40953 and #B40958) were used at 1:500 dilution. Slides were counterstained with DAPI and cover slipped using Mowiol antifade mounting media (Sigma #D2522).
(§2) Slides were imaged with Aperio Versa 200 (Leica Biosystems) whole-slide scanner using 10×/0.32NA objective, and the data were analyzed using custom-written macros in ImageJ/FIJI (NIH). Briefly, 150 μm of outer edges of the tumor sections were eliminated from the analysis. Gaussian-blurred DAPI channel was used to measure the area of the tissue. Scans of […] were processed with median filter to remove noise, then positive areas were measured with appropriate threshold levels. % positive area for each marker was calculated. CD31-SMA double positive areas were measured via image calculation of the binary images. One-way ANOVA and pair-wise comparisons were performed on the data using Prism GraphPad.
PERK is an adaptive stress response that links hypoxia and nutrient deprivation with proangiogenic signaling. The effect of HC-5404 on tumor vasculature when administered in combination with antiangiogenic VEGFR-TKIs was investigated.
As immature blood vessels mature, they develop a mural layer of cells that express smooth muscle actin (SMA), which encircles and stabilizes the maturing vessel. Co-staining for both CD31 and SMA was conducted to determine whether treatments were affecting mature or immature tumor blood vessels.
This example investigated the inhibition the effect of cabozantinib on the formation of new tumor vasculature and on pericytes following procedures analogous to those described above.

[2] = tested on: tumor vasculature and pericyte cells of 786-O xenografts progressed on axitinib; test: IHC of tumor vasculature and pericytes in 786-O xenografts that progressed on axitinib; type: in vivo, mouse; conditions: 7 days after rerandomization (FIG. 92)
Protocol: as §1, §2
After 14 days of treatments, 77 mice bearing the largest tumors were rerandomized into four PD arms (n=8), four efficacy arms (n=10), and 5 tumors sampled on day of rerandomization as a baseline. The remaining animals were removed from study.

[3] = tested on: MFE280 endometrial cancer model; test: MFE280 endometrial xenograft tumor growth; type: in vivo, mouse; conditions: single agent: HC-5404 30 mg/kg PO BID or lenvatinib 10 mg/kg QD (FIG. 77)
Protocol: Xenograft RCC models were generated as follows: Female NOD.SCID mice (6-8 weeks of age) were injected with A498 RCC cells (5×10^6 cells/mouse), female Balb/c Nude mice (6-8 weeks old) were implanted with 786-O RCC cells (5×10^6 cells/mouse) or Caki-1 RCC cells (6×10^6 cells/mouse), female Athymic Nude-Foxn1nu mice (7-8 weeks of age) were implanted with MFE280 endometrial cells (10×10^6 cells/mouse). Cells were implanted into the flank of animals.
Once tumor tumors reached volume of typically 150-250 mm^3, animals were randomized by tumor volume into the treatment groups of 8 or 10 animals per group. In the single animal trial with RCC PDX models, only one animal per group was enrolled.
Body weight and tumor volume were measured twice weekly. Tumor volume was calculated using the formula [tumor volume (mm^3)=π/6×length×width^2] and plotted as means+SEM. The percentage of tumor growth inhibition was calculated at the end of the study using the formula: 100−[1−(ΔT/ΔC)], if ΔT>0, ΔT, mean tumor volume of the drug-treated group on the observation day of the study—mean tumor volume of the drug-treated group on initial day of dosing; ΔC, mean tumor volume of the control group on the observation day of the study—mean tumor volume of the control group on initial day of dosing. Regression was calculated using the formula=100×ΔT/Tinitial, if ΔT<0. […]

[4] = tested on: ATF4 targets in gastric PDX (GAO 114-R19P6); test: ATF4 target proteins in gastric PDX; type: in vivo, mouse; conditions: 7 days, 1 h post-dose (FIG. 81, 82)
Protocol: Samples were put in 500 μL of Novex lysis buffer consisting of 2× Novex Tris-Glycine SDS sample buffer (ThermoFisher LC2676), 1× Phosphatase Inhibitor Cocktail III (Sigma P0044), 1× PhosphataseArrest I (Gbioscience 113P-D), 1×2-mercaptoethanol (Gibco 21985023), 1× Benzonase (EMD Millipore Corp 70746-3), and 1× Protease inhibitor cocktail tablet (Roche/Sigma 11836170001). Samples were homogenized with the Polytron and heated for 10 min at 95 °C. They were then centrifuged at max speed for 10 min and the supernatant was transferred. Protein concentrations of samples were measured using the Pierce 660 nm Protein assay kit (Thermo Scientific 22660) according to the manufacturer's instructions.
Western Blot analysis was performed on the SimpleWestern high-throughput protein analysis platform (ProteinSimple 004-650) according to manufacturer's protocol using a 12-230 kDA Separation Module (ProteinSimple SM-W004) and Total Protein Detection Module (ProteinSimple DM-TP01). Antibodies used were: (Add info for other antibodies used) pPERK (Lilly; 1:50) and PERK (Cell Signaling Technology 5683; 1:200). All protein analytes were normalized to total protein loaded on capillary.
Gastric PDX model (GAO 114-R19P6) PD arm sampled after 7 days, 1 h post-dose.

[5] = tested on: pro-angiogenic cytokines in mouse plasma; test: plasma pro-angiogenic cytokines, mice bearing 786-O tumors; type: in vivo
Protocol: Mouse plasma sampled following 7 days of treatment with HC-5404 (30 mpk, PO, BID) and cabozantinib (30 mpk, PO, QD). Multiple cytokines associated with angiogenesis were quantified by Illumina multiplex.
Plasma analysis from mice bearing 786-O tumors, treated with HC-5404 at 3, 10, or 30 mg/kg (PO; BID) as a single agent or in combination with cabozantinib (30 mg/kg; PO; QD). Multiple cytokines associated with angiogenesis were quantified by Illumina multiplex (FIG. 86, FIG. 87, FIG. 88, FIG. 89, FIG. 90).

RXF-2540 = test: RCC PDX single animal trial, RXF-2540; type: in vivo, mouse; conditions: HC-5404 30 mg/kg PO BID, n=1
Text: This example investigated the effect of HC-5404 in combination with VEGFR-TKIs in inhibiting tumor growth using 12 RCC PDX tumor models, following procedures analogous to those described above.
Single animal per group (n=1) trial of animals harboring diverse RCC PDX models were used in this study.

Cc1cc(NC(=O)[C@H](O)c2cc(F)cc(F)c2)ccc1-c1cnc(N)c(C(=O)NC(C)C)c1 [HC-5404, (R)-2-amino-5-(4-(2-(3,5-difluorophenyl)-2-hydroxyacetamido)-2-methylphenyl)-N-isopropylnicotinamide]
expression of any vascular markers ([1]; HC-5404 single agent (FIG. 39)): did not affect the expression of any vascular markers
proportion of Meca32 expressing vascular endothelial cells ([1]; axitinib study (FIG. 38, 39)): did not affect this vascular endothelium marker
proportion of smooth muscle actin (SMA) [2]: decreased
TGI % [3]: ~ 37%
ATF4 target genes [4]: induces ATF4 target genes, including ASNS, PSAT1 and other enzymes involved in amino acid metabolism
VEGF-A in plasma ([5]; 3, 10, 30 mg/kg PO BID (FIG. 86)): decreased in plasma by HC-5404 as a single agent in a dose-dependent fashion
LYVE-1 in plasma ([5]; 3, 10, 30 mg/kg PO BID, alone or with cabozantinib (FIG. 89)): decreased by HC-5404 in a dose-dependent manner
Syndecan in plasma ([5]; 3, 10, 30 mg/kg PO BID, alone or with cabozantinib (FIG. 90)): decreased by HC-5404 as monotherapy
antitumor efficacy as monotherapy (RXF-2540): exhibited antitumor efficacy

From patent US20260373132A1, “PERK INHIBITORHC-5404 IN COMBINATION WITH ANTI-PD-1 ANTIBODY AND/OR AN ANTIANGIOGENETIC AGENT FOR USE IN THE TREATMENT OF CANCER” (HIBERCELL, INC., priority 2022, published 2026)
